{"source": "patent US12240862B2", "about": "“Inhibitors of peptidylarginine deiminases” (Gilead Sciences, Inc., priority 2020, dated 2025)", "data": [{"target": "T1, human PAD4 (Homo sapiens, UniProt Q9UM07)", "T1 construct": "human PAD4 (NM_012387), A2P663, was PCR amplified; His-SUMO (N, cleaved yes); made in house; host or cells: E. coli BL21(DE3)", "T1 sequence (Q9UM07 2-663)": "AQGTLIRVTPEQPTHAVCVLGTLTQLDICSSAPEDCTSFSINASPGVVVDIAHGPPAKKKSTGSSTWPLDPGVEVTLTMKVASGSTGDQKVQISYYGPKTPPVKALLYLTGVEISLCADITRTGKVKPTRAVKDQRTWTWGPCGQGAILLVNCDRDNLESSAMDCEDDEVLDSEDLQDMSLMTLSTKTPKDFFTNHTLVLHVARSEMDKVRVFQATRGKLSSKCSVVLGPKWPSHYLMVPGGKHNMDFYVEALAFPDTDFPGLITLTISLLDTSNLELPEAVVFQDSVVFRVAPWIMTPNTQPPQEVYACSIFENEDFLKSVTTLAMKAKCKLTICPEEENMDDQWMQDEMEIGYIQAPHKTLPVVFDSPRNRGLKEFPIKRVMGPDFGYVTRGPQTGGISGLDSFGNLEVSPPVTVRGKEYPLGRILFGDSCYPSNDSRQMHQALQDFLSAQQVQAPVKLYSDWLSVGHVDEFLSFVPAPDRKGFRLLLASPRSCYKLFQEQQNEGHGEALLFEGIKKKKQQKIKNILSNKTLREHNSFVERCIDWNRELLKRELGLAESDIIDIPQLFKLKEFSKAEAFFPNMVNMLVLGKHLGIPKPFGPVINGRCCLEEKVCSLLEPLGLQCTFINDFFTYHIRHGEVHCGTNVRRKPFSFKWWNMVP", "experiment": "In vitro PAD4 BAEE biochemical assay", "settings": "human PAD4, BAEE substrate; 5 nM PAD4, 2 mM calcium chloride, 3 mM BAEE; geometric mean of multiple experiments", "summary_of_the_method": "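Tag-free recombinant hPAD4 (5 nM), 2 mM CaCl2, 3 mM BAEE, 50 mM MOPS pH 7.6, 2 mM DTT; 30 min compound preincubation, 2 h reaction, all 25 °C. EDTA quench; ammonia read via o-phthalaldehyde amine coupling, 1 h.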", "units": {"IC50": "nM"}, "values": [{"molecule": "COc1cc(C(=O)N2[C@H]3CC[C@@H]2[C@H](N)C3)cc2nc(-c3cc4ccc([C@@H](C)NC(=O)NC5CC6(CC6)C5)nc4n3CC3CC3)c(C)n12", "note": "[Example 204, 1-[(1~{R})-1-[2-[7-[(1~{R},2~{R},4~{S})-2-amino-7-azabicyclo[2.2.1]heptane-7-carbonyl]-5-methoxy-3-methylimidazo [1,2-a]pyridin-2-yl]-1-(cyclopropylmethyl)pyrrolo [2,3-b]pyridin-6-yl]ethyl]-3-spiro[2.3]hexan-5-ylurea]", "IC50": 30.1}, {"molecule": "COc1cc(C(=O)N2[C@H]3CC[C@@H]2[C@H](N)C3)cc2nc(-c3cc4ccc(C(NC(=O)C(C)(C)C)C(F)(F)F)nc4n3CC3CC3)c(C)n12", "note": "(some centres unmarked) [Example 192, ~{N}-[1-[2-[7-[(1~{R},2~{R},4~{S})-2-amino-7-azabicyclo[2.2.1]heptane-7-carbonyl]-5-methoxy-3-methylimidazo [1,2-a]pyridin-2-yl]-1-(cyclopropylmethyl)pyrrolo [2,3-b]pyridin-6-yl]-2,2,2-trifluoroethyl]-2,2-dimethylpropanamide]", "IC50": 689}, {"molecule": "COc1cc(C(=O)N2[C@H]3CC[C@@H]2[C@H](N)C3)cc2nc(-c3cc4ccc(N5CCCCS5(=O)=O)nc4n3CC3CC3)c(C)n12", "note": "[Example 474, [(1~{R},2~{R},4~{S})-2-amino-7-azabicyclo [2.2.1]heptan-7-yl]-[2-[1-(cyclopropylmethyl)-6-(1,1-dioxothiazinan-2-yl)pyrrolo [2,3-b]pyridin-2-yl]-5-methoxy-3-methylimidazo [1,2-a]pyridin-7-yl]methanone]", "IC50": 44.2}, {"molecule": "COc1cc(C(=O)N2[C@H]3CC[C@@H]2[C@H](N)C3)cc2nc(-c3cc4ccc([C@@H](C)NC(=O)C(C)(C)C)nc4n3CC34CC(C3)C4)c(C3CC3)n12", "note": "[Example 486, N—((R)-1-(2-(7-((1R,2R,4S)-2-amino-7-azabicyclo[2.2.1]heptane-7-carbonyl)-3-cyclopropyl-5-methoxyimidazo[1,2-a]pyridin-2-yl)-1-(bicyclo[1.1.1]pentan-1-ylmethyl)-1H-pyrrolo[2,3-b]pyridin-6-yl)ethyl)pivalamide]", "IC50": 666}, {"molecule": "COc1cc(C(=O)N2[C@H]3CC[C@@H]2[C@H](N)C3)cc2nc(-c3cc4ccc([C@@H](C)NC(=O)c5ccncc5)nc4n3CC3CC3)c(C)n12", "note": "[Example 119, ~{N}-[(1~{R})-1-[2-[7-[(1~{R},2~{R},4~{S})-2-amino-7-azabicyclo[2.2.1]heptane-7-carbonyl]-5-methoxy-3-methylimidazo [1,2-a]pyridin-2-yl]-1-(cyclopropylmethyl)pyrrolo [2,3-b]pyridin-6-yl]ethyl] pyridine-4-carboxamide]", "IC50": 34.5}, {"molecule": "COc1cc(C(=O)N2[C@H]3CC[C@@H]2[C@H](N)C3)cc2nc(-c3cc4ccc(N5CCCC6(CC6)S5(=O)=O)nc4n3CC3CC3)c(C)n12", "note": "[Example 457, [(1~{R},2~{R},4~{S})-2-amino-7-azabicyclo [2.2.1]heptan-7-yl]-[2-[1-(cyclopropylmethyl)-6-(4,4-dioxo-4$l^6-thia-5-azaspiro[2.5]octan-5-yl)pyrrolo[2,3-b]pyridin-2-yl]-5-methoxy-3-methylimidazo[1,2-a]pyridin-7-yl]methanone]", "IC50": 52.2}, {"molecule": "COc1cc(C(=O)N2[C@H]3CC(C)[C@@H]2[C@H](N)C3)cc2nc(-c3cc4ccc(N(C(F)F)S(C)(=O)=O)nc4n3CC3CC3)c(C)n12", "note": "(stereo partly drawn) [Example 351, N-[2-[7-[(1R,2R,4S)-2-amino-6-methyl-7-azabicyclo[2.2.1]heptane-7-carbonyl]-5-methoxy-3-methyl-imidazo[1,2-a]pyridin-2-yl]-1-(cyclopropylmethyl)pyrrolo [2,3-b]pyridin-6-yl]-N-(difluoromethyl) methanesulfonamide]", "IC50": 6510}, {"molecule": "COc1cc(C(=O)N2C[C@H](N)CC[C@@H]2C)cc2nc(-c3cc4ccc(-c5c(C)nn(CC(N)=O)c5C)nc4n3CC3CC3)c(C)n12", "note": "[Example 609, 2-[4-[2-[7-[(2~{S}, 5~{R})-5-amino-2-methylpiperidine-1-carbonyl]-5-methoxy-3-methylimidazo [1,2-a]pyridin-2-yl]-1-(cyclopropylmethyl)pyrrolo [2,3-b]pyridin-6-yl]-3,5-dimethylpyrazol-1-yl]acetamide]", "IC50": 711}, {"molecule": "CCOC(=O)CC(C)c1ccc2cc(-c3nc4cc(C(=O)N5CCC[C@@H](N)C5)cc(OC)n4c3C)n(CC3CC3)c2n1", "note": "(some centres unmarked) [Example 598, ethyl 3-[2-[7-[(3~{R})-3-aminopiperidine-1-carbonyl]-5-methoxy-3-methylimidazo [1,2-a]pyridin-2-yl]-1-(cyclopropylmethyl)pyrrolo [2,3-b]pyridin-6-yl] butanoate]", "IC50": 312}, {"molecule": "COc1cc(C(=O)N2C[C@H]3CC[C@@H]2[C@@H]3N)cc2nc(-c3cc4ccc([C@@H](C)NC(=O)N5CCCC5)nc4n3CC3CC3)c(C)n12", "note": "[Example 250, N-((R)-1-(2-(7-((1R,4R,7R)-7-amino-2-azabicyclo[2.2.1]heptane-2-carbonyl)-5-methoxy-3-methylimidazo[1,2-a]pyridin-2-yl)-1-(cyclopropylmethyl)-1H-pyrrolo[2,3-b]pyridin-6-yl)ethyl) pyrrolidine-1-carboxamide]", "IC50": 193}, {"molecule": "COc1cc(C(=O)N2[C@H]3CC[C@@H]2[C@H](N)C3)cc2nc(-c3cc4ccc([C@@H](C)NC(=O)NC(C)(C)C)nc4n3CC3CC3)c(C)n12", "note": "[Example 244, 1-[(1~{R})-1-[2-[7-[(1~{R},2~{R},4~{S})-2-amino-7-azabicyclo[2.2.1]heptane-7-carbonyl]-5-methoxy-3-methylimidazo [1,2-a]pyridin-2-yl]-1-(cyclopropylmethyl)pyrrolo [2,3-b]pyridin-6-yl]ethyl]-3-~{tert}-butylurea]", "IC50": 89.6}, {"molecule": "COc1cc(C(=O)N2[C@H]3CC[C@@H]2[C@H](N)C3)cc2nc(-c3cc4ccc([C@@H](C)NC(=O)C5CCC5)nc4n3CC3CC3)c(C)n12", "note": "[Example 101]", "IC50": 22.5}, {"molecule": "CCc1ccc2cc(-c3nc4cc(C(=O)N5[C@H]6CC[C@@H]5[C@H](N)C6)cc(OC)n4c3C)n(-c3nccs3)c2n1", "note": "[Example 510, [(1~{R},2~{R},4~{S})-2-amino-7-azabicyclo [2.2.1]heptan-7-yl]-[2-[6-ethyl-1-(1,3-thiazol-2-yl)pyrrolo[2,3-b]pyridin-2-yl]-5-methoxy-3-methylimidazo[1,2-a]pyridin-7-yl]methanone]", "IC50": 17100}, {"molecule": "COc1cc(C(=O)N2[C@H]3CC[C@@H]2[C@H](N)C3)cc2nc(-c3cc4ccc([C@@H](C)NC(=O)C5CCC5(F)F)nc4n3CC3CC3)c(C)n12", "note": "(some centres unmarked) [Example 61, ~{N}-[(1~{R})-1-[2-[7-[(1~{R},2~{R},4~{S})-2-amino-7-azabicyclo [2.2.1]heptane-7-carbonyl]-5-methoxy-3-methylimidazo [1,2-a]pyridin-2-yl]-1-(cyclopropylmethyl)pyrrolo[2,3-b]pyridin-6-yl]ethyl]-2,2-difluorocyclobutane-1-carboxamide]", "IC50": 37.8}, {"molecule": "COc1cc(C(=O)N2[C@H]3CC[C@@H]2[C@H](N)C3)cc2nc(-c3cc4ccc([C@@H](C)NC(=O)N5CC(O)C5)nc4n3CC3CC3)c(C)n12", "note": "[Example 227, ~{N}-[(1~{R})-1-[2-[7-[(1~{R},2~{R},4~{S})-2-amino-7-azabicyclo[2.2.1]heptane-7-carbonyl]-5-methoxy-3-methylimidazo [1,2-a]pyridin-2-yl]-1-(cyclopropylmethyl)pyrrolo [2,3-b]pyridin-6-yl]ethyl]-3-hydroxyazetidine-1-carboxamide]", "IC50": 65.2}, {"molecule": "COc1cc(C(=O)N2CCC[C@@H](N)C2)cc2nc(-c3cc4ccc(N(C)S(C)(=O)=O)nc4n3CC3CC3)c(C)n12", "note": "[Example 482, ~{N}-[2-[7-[(3~{R})-3-aminopiperidine-1-carbonyl]-5-methoxy-3-methylimidazo[1,2-a]pyridin-2-yl]-1-(cyclopropylmethyl)pyrrolo [2,3-b]pyridin-6-yl]-~{N}-methylmethanesulfonamide]", "IC50": 171}, {"molecule": "COc1cc(C(=O)N2[C@H]3CC[C@@H]2[C@H](N)C3)cc2nc(-c3cc4ccc(-c5ccccc5C(F)(F)F)nc4n3CC3CC3)c(C)n12", "note": "[Example 549, [(1~{R},2~{R},4~{S})-2-amino-7-azabicyclo [2.2.1]heptan-7-yl]-[2-[1-(cyclopropylmethyl)-6-[2-(trifluoromethyl)phenyl]pyrrolo[2,3-b]pyridin-2-yl]-5-methoxy-3-methylimidazo[1,2-a]pyridin-7-yl]methanone]", "IC50": 3670}, {"molecule": "COc1cc(C(=O)N2C[C@H]3CC[C@@H]2[C@@H]3N)cc2nc(-c3cc4ccc([C@@H](C)Nc5ncccn5)nc4n3CC3CC3)c(C)n12", "note": "[Example 266, ((1R,4R,7R)-7-amino-2-azabicyclo[2.2.1]heptan-2-yl)(2-(1-(cyclopropylmethyl)-6-((R)-1-(pyrimidin-2-ylamino)ethyl)-1H-pyrrolo[2,3-b]pyridin-2-yl)-5-methoxy-3-methylimidazo [1,2-a]pyridin-7-yl) methanone]", "IC50": 341}, {"molecule": "COc1cc(C(=O)N2[C@H]3CC[C@@H]2[C@H](N)C3)cc2nc(-c3cc4ccc([C@H](NC(=O)C5(C#N)CC5)C(F)(F)F)nc4n3CC3CC3)c(C)n12", "note": "[Example 191, ~{N}-[(1~{S})-1-[2-[7-[(1~{R},2~{R},4~{S})-2-amino-7-azabicyclo[2.2.1]heptane-7-carbonyl]-5-methoxy-3-methylimidazo [1,2-a]pyridin-2-yl]-1-(cyclopropylmethyl)pyrrolo [2,3-b]pyridin-6-yl]-2,2,2-trifluoroethyl]-1-cyanocyclopropane-1-carboxamide]", "IC50": 708}, {"molecule": "COc1cc(C(=O)N2CCC[C@@H](N)C2)cc2nc(-c3cc4ccc(N(C(F)F)S(=O)(=O)C5CC5)nc4n3CC3CC3)c(C)n12", "note": "[Example 413, ~{N}-[2-[7-[(3~{R})-3-aminopiperidine-1-carbonyl]-5-methoxy-3-methylimidazo [1,2-a]pyridin-2-yl]-1-(cyclopropylmethyl)pyrrolo [2,3-b]pyridin-6-yl]-~{N}-(difluoromethyl) cyclopropanesulfonamide]", "IC50": 253}]}]}
